# Laboratory results from US9980943B2, “Methods of treating muscular dystrophy” (BOARD OF REGENTS OF THE NEVADA SYSTEM OF HIGHER EDUCATION, …, priority 2013, dated 2018).
# Read-outs that look alike come from different tables or passages of the source.
# What was measured:
# [1] = tested on: α7 integrin (LacZ reporter in α7LacZ+/− myoblasts); assay: qHTS of the LOPAC library and MLSMR (online screen, α7LacZ+/− myoblasts); conditions: for activation at 0.307 µM: read-out: Activity at 0.307 uM [%] **; for activation at 1.53 µM: read-out: Activity at 1.530 uM [%] **; for activation at 7.66 µM: read-out: Activity at 7.660 uM [%] **; for activation at 38.3 µM: read-out: Activity at 38.30uM [%] **; for Online Screen Score / Online Screen Fold-change: MLSMR qHTS, myoblasts
# [2] = tested on: β-galactosidase in CMV-LacZ C2C12 myotubes; assay: CMV-LacZ secondary screen in C2C12 myotubes (β-Gal stabilizing assay); format: cell-based, mouse; conditions: for CMV-LACZ in Myotubes, signal relative to DMSO: C2C12 CMV-LacZ myotubes, fold relative to DMSO; for CMV-LACZ in Myotubes, value relative to DMSO: SU9516 analogs, C2C12 CMV-LacZ, N=2
# Outline: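 Stable CMV-LacZ C2C12 clone; six-point curve 0.5–40 μM; duplicates.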
# [3] = tested on: α7 integrin (LacZ reporter in α7+/LacZ myotubes); assay: Myotube α7 integrin FDG assay (Burkin assay in myotubes, 96-well); format: cell-based, mouse; conditions: myotubes; for EC50: nonlinear regression of dose-response curves, read-out: EC50 α7+/LacZ MT; for MT FOLD INCREASE: maximum response
# [4] = tested on: β-galactosidase in CMV-LacZ C2C12 myoblasts; assay: CMV-LacZ secondary screen in C2C12 myoblasts (β-Gal stabilizing assay); format: cell-based, mouse; conditions: for CMV-LACZ in Myoblasts (β-galactosidase activity relative to DMSO): CMV-LacZ C2C12 myoblasts; for CMV-LACZ in Myoblasts, value relative to DMSO: SU9516 analogs, C2C12 CMV-LacZ, N=2
# Description: In order to determine compounds that acted to stabilize β-gal in myogenic cells, a CMV-LacZ C2C12 cell line was used in a secondary screen. The EGFP gene from the pEGFP (Clontech) vector was replaced by LACZ PCR product with digests of the vector/PCR product performed using EcoRI (NEB) and NotI (NEB) and ligated using T4 DNA Ligase (NEB) following standard procedures to produce the CMV-LACZ vector. The LACZ gene was generated by PCR from the pBK-RSV (Stratagene) vector using primers LACZ EcoRI F- and LACZ NotI R-. The CMV-LACZ vector was then digested with AfIII (NEB) to linearize the construct, which was then transfected in C2C12 myoblasts using Lipofectamine 2000 (Invitrogen) following the manufacturer's instructions. […] Clonal lines were selected and screened for βgal levels using the myoblast FDG assay.
# The assays were used the original 96-well format and new dose-response curves for myoblasts (N=3-6 replicates for each data point), myotubes (N=3-6 replicates for data point), and CMV-LacZ secondary assay (N=2 replicates for each data point) using concentrations of 0.5 μM, 1 μM, 5 μM, 10 μM, 20 μM, and 40 μM (Tables 9-16).
# [5] = tested on: α7 integrin (LacZ reporter in α7βgal+/− myoblasts); assay: Myoblast α7+/LacZ integrin FDG assay (Burkin assay in myoblasts, 96-well); format: cell-based, mouse; conditions: α7+/LacZ myoblasts, 96-well
# [6] = Mus musculus, Myoblast, 48 h, read-out: Fit Infinite Activity [%]
# [7] = Mus musculus, Myoblast, read-out: Max Response [%]
compound,measurement,setting,value
N#Cc1ccc(Sc2nc3ccccc3[nH]2)cc1C#N [Compound 218],activation at 0.307 µM,"[1]; Mus musculus, Myoblast, 48 h",14%
same,activation at 1.53 µM,"[1]; Mus musculus, Myoblast, 48 h",13.1%
same,activation at 7.66 µM,"[1]; Mus musculus, Myoblast, 48 h",29.8%
same,activation at 38.3 µM,"[1]; Mus musculus, Myoblast, 48 h",71.5%
same,Emax,[1]; [6],71.8%
same,EC50,"[1]; Mus musculus, Myoblast, read-out: Fit LogAC50 (converted)",10 µM
same,Emax,[1]; [7],71.5%
CC(=O)Nc1nonc1-c1nc2ccccc2n1CCC(C)C [Compound 219],activation at 0.307 µM,"[1]; Mus musculus, Myoblast, 48 h",-8.22%
same,activation at 1.53 µM,"[1]; Mus musculus, Myoblast, 48 h",-3.05%
same,activation at 7.66 µM,"[1]; Mus musculus, Myoblast, 48 h",21.4%
same,activation at 38.3 µM,"[1]; Mus musculus, Myoblast, 48 h",66%
same,Emax,[1]; [6],76.4%
same,Emax,[1]; [7],66%
C=CCn1c(COc2ccc(Cl)cc2)nnc1SCc1ccc(C#N)cc1 [Compound 220],activation at 0.307 µM,"[1]; Mus musculus, Myoblast, 48 h",7.14%
same,activation at 1.53 µM,"[1]; Mus musculus, Myoblast, 48 h",9.51%
same,activation at 7.66 µM,"[1]; Mus musculus, Myoblast, 48 h",27.6%
same,activation at 38.3 µM,"[1]; Mus musculus, Myoblast, 48 h",93.8%
same,Emax,[1]; [6],95.1%
same,Emax,[1]; [7],93.8%
O=C(Cn1nc(-c2ccc(Cl)cc2)ccc1=O)N1CCC2(CC1)OCCO2 [Compound 221],activation at 0.307 µM,"[1]; Mus musculus, Myoblast, 48 h",6.38%
same,activation at 1.53 µM,"[1]; Mus musculus, Myoblast, 48 h",7.87%
same,activation at 7.66 µM,"[1]; Mus musculus, Myoblast, 48 h",16.8%
same,activation at 38.3 µM,"[1]; Mus musculus, Myoblast, 48 h",66.1%
same,Emax,[1]; [6],66.5%
same,Emax,[1]; [7],66.1%
CCOC(=O)/C(C(=O)c1ccccc1)=C(\N)NCCO [Compound 222],activation at 0.307 µM,"[1]; Mus musculus, Myoblast, 48 h",9.44%
same,activation at 1.53 µM,"[1]; Mus musculus, Myoblast, 48 h",9.77%
same,activation at 7.66 µM,"[1]; Mus musculus, Myoblast, 48 h",16.5%
same,activation at 38.3 µM,"[1]; Mus musculus, Myoblast, 48 h",66.5%
same,Emax,[1]; [6],66.8%
same,Emax,[1]; [7],66.5%
O=c1[nH]c(CN2CCCCC2)nc2c1C1(CCCCC1)Cc1ccccc1-2 [MLS000028160-01],"CMV-LACZ in Myotubes, signal relative to DMSO",[2]; 0.5 uM,1.0524
same,"CMV-LACZ in Myotubes, signal relative to DMSO",[2]; 1 uM,1.0362
same,"CMV-LACZ in Myotubes, signal relative to DMSO",[2]; 5 uM,1.0348
same,"CMV-LACZ in Myotubes, signal relative to DMSO",[2]; 10 uM,0.9249
same,"CMV-LACZ in Myotubes, signal relative to DMSO",[2]; 20 uM,1.0471
same,"CMV-LACZ in Myotubes, signal relative to DMSO",[2]; 40 uM,1.1976
same,"Burkin Assay in Myotubes, α7 integrin LacZ reporter signal relative to DMSO",[3]; 0.5 uM,1.085
same,"Burkin Assay in Myotubes, α7 integrin LacZ reporter signal relative to DMSO",[3]; 1 uM,1.102
same,"Burkin Assay in Myotubes, α7 integrin LacZ reporter signal relative to DMSO",[3]; 5 uM,0.9162
same,"Burkin Assay in Myotubes, α7 integrin LacZ reporter signal relative to DMSO",[3]; 10 uM,0.9598
same,"Burkin Assay in Myotubes, α7 integrin LacZ reporter signal relative to DMSO",[3]; 20 uM,0.9049
same,"Burkin Assay in Myotubes, α7 integrin LacZ reporter signal relative to DMSO",[3]; 40 uM,0.8112
same,CMV-LACZ in Myoblasts (β-galactosidase activity relative to DMSO),[4]; 0.5 uM,1.0663
same,CMV-LACZ in Myoblasts (β-galactosidase activity relative to DMSO),[4]; 1 uM,0.9029
same,CMV-LACZ in Myoblasts (β-galactosidase activity relative to DMSO),[4]; 5 uM,0.9378
same,CMV-LACZ in Myoblasts (β-galactosidase activity relative to DMSO),[4]; 10 uM,1.2759
same,CMV-LACZ in Myoblasts (β-galactosidase activity relative to DMSO),[4]; 20 uM,0.8967
same,CMV-LACZ in Myoblasts (β-galactosidase activity relative to DMSO),[4]; 40 uM,0.8600
same,"Burkin Assay in Myoblasts, signal relative to DMSO",[5]; 0.5 uM,1.037
same,"Burkin Assay in Myoblasts, signal relative to DMSO",[5]; 1 uM,0.9873
same,"Burkin Assay in Myoblasts, signal relative to DMSO",[5]; 5 uM,0.9805
same,"Burkin Assay in Myoblasts, signal relative to DMSO",[5]; 10 uM,0.8521
same,"Burkin Assay in Myoblasts, signal relative to DMSO",[5]; 20 uM,1.107
same,"Burkin Assay in Myoblasts, signal relative to DMSO",[5]; 40 uM,0.8535
CN(C)c1ccnc2sc(C(N)=O)c(N)c12 [MLS000532969],EC50,[3],2.2 µM
same,Online Screen Score,[1],44
CC1CCCCN1c1ncnc(N)c1[N+](=O)[O-] (centres unmarked) [MLS000683234],MT FOLD INCREASE,[3],1.7 fold
same,EC50,[3],27 µM
same,Online Screen Fold-change,[1],2.6
same,Online Screen Score,[1],46
O=C(Nc1ccc(N2CCN(C(=O)c3ccccc3F)CC2)cc1)c1cncc(Br)c1 [MLS001060533],MT FOLD INCREASE,[3],1.5 fold
same,EC50,[3],4.7 µM
same,Online Screen Fold-change,[1],1.9
same,Online Screen Score,[1],42
C[C@H]1CNC(=O)c2c(C(=O)Nc3ccc(CNC(=O)OC(C)(C)C)cc3)ncn21 [MLS003126425],MT FOLD INCREASE,[3],2.0 fold
same,EC50,[3],7 µM
same,Online Screen Fold-change,[1],1.9
same,Online Screen Score,[1],43
Cc1cc(C)c(/C=C2\C(=O)Nc3ccccc32)[nH]1 [NCGC00094381-04],"CMV-LACZ in Myotubes, value relative to DMSO",[2]; 0.5 uM,1.0845
same,"CMV-LACZ in Myotubes, value relative to DMSO",[2]; 1 uM,1.4927
same,"CMV-LACZ in Myotubes, value relative to DMSO",[2]; 5 uM,1.2849
same,"CMV-LACZ in Myotubes, value relative to DMSO",[2]; 10 uM,1.1010
same,"CMV-LACZ in Myotubes, value relative to DMSO",[2]; 20 uM,3.8710
same,"CMV-LACZ in Myotubes, value relative to DMSO",[2]; 40 uM,8.1220
same,"CMV-LACZ in Myoblasts, value relative to DMSO",[4]; 0.5 uM,1.0763
same,"CMV-LACZ in Myoblasts, value relative to DMSO",[4]; 5 uM,1.1366
same,"CMV-LACZ in Myoblasts, value relative to DMSO",[4]; 10 uM,0.9770
same,"CMV-LACZ in Myoblasts, value relative to DMSO",[4]; 20 uM,0.9330
same,"CMV-LACZ in Myoblasts, value relative to DMSO",[4]; 40 uM,0.9697
